Data taken from US8710017B2, “Human and mouse targeting peptides identified by phage display” (priority 2000, dated 2014).
Peptide text beside a SMILES is read from it.

Tests used:
[1] = biological target: T1, APA (SK-RC-49/APA cells) (Homo sapiens, UniProt Q07075); experiment: Phage binding specificity assay on SK-RC-49/APA cells; assay type: cell-based; conditions: soluble peptide in binding medium, not shown
T1 construct: The renal carcinoma cell line SK-RC-49 was transfected with an expression vector encoding full-length APA cDNA; expressed in transfected cells; host or cells: SK-RC-49 renal carcinoma cells, stably transfected (G418)
Description: The cell binding assay was performed with an input of 10^9 TU as described for the cell panning. The specificity was confirmed by adding […] (SEQ ID NO:123) peptide to the binding medium in increasing concentrations. For phage binding on immunocaptured APA, wells were blocked for 1 h at room temperature with PBS/3% BSA and incubated with 10^9 TU for 1 h at room temperature in 50 μl PBS/3% BSA. After eight washes in PBS/1% BSA/0.01% Tween-20 and two washes in PBS, phage were rescued by adding 200 μl of exponentially growing K91Kan E. coli. Each experiment was repeated at least three times.

[2] = biological target: T2, Aminopeptidase A (APA, EC 3.4.11.7) (Homo sapiens, UniProt Q07075); experiment: APA enzyme assay (α-glutamyl-p-nitroanilide, SK-RC-49/APA cells); assay type: biochemical; conditions: highest concentration tested
T2 construct: The renal carcinoma cell line SK-RC-49 was transfected with an expression vector encoding full-length APA cDNA; expressed in transfected cells; host or cells: SK-RC-49 renal carcinoma cells, stably transfected (G418)

[3] = test system: HUVECs; experiment: HUVEC cell growth assay (crystal violet, VEGF-A); assay type: cell-based, human
Description: FIG. 25. […] (SEQ ID NO:123) inhibits HUVEC proliferation. Cells were stimulated with VEGF-A (10 ng/ml), and growth was evaluated at the indicated times by a colorimetric assay based on crystal violet staining. Error bars are the standard error of the means of triplicate wells. Each experiment was repeated at least twice with similar results.
HUVECs were seeded in 48-well plates (10^4 cells/well) and allowed to attach for 24 h in complete M199 medium. The cells were then starved in M199 medium containing 2% FCS for 24 h. […] (SEQ ID NO:123) or control […] (SEQ ID NO:124) peptide (1 mM) was added to the wells in medium containing 2% FCS and 10 ng/ml VEGF-A (R&D System, Abingdom, UK). After incubation for the indicated times, cells were fixed in 2.5% glutaraldehyde, stained with 0.1% crystal violet in 20% methanol, and solubilized in 10% acetic acid. All treatments were done in triplicate. Cell growth was evaluated by measuring the O.D. at 590 nm in a microplate reader (Biorad, Hercules, Calif.). A calibration curve was established and a linear correlation between O.D. and cell counts was observed between 10^3 and 10^5 cells.

[4] = test system: HUVECs; experiment: Three-dimensional Matrigel culture of HUVECs (capillary-like network); assay type: cell-based, human; conditions: not shown
Description: Matrigel (Collaborative Research, Bedford, Mass.) was added at 100 μl per well to 48-well tissue culture plates and allowed to solidify for 10 min at 37° C. HUVECs were starved for 24 h in M199 medium supplemented with 2% FCS before being harvested in PBS containing 2.5 mM EDTA. 10^4 cells were gently added to each of the triplicate wells and allowed to adhere to the gel coating for 30 min at 37° C. Then, medium was replaced with indicated concentrations of […] (SEQ ID NO:123) or […] (SEQ ID NO:124) peptides in complete medium. The plates were photographed after 24 h with an inverted microscope (Canon). The assay was repeated three times.

[5] = test system: chicken chorioallantoic membrane (CAM); experiment: CAM assay for angiogenesis; assay type: in vivo
Description: In vivo angiogenesis was evaluated by a CAM assay (Ribatti et al., 1994). Fertilized eggs from White Leghorn chickens were maintained in constant humidity at 37° C. On the third day of incubation, a square window was opened in the eggshell and 2-3 ml of albumen was removed to detach the developing CAM from the shell. The window was sealed with a glass plate of the same size and the eggs were returned to the incubator. At day 8, 1 mm^3 sterilized gelatin sponges (Gelfoam, Upjohn Co, Kalamazoo, Milan) were adsorbed with VEGF-A (20 ng, R&D System) and either […] (SEQ ID NO:123) or control […] (SEQ ID NO:124) peptide (1 mM) in 3 μl PBS and implanted on the top of the growing CAMs under sterile conditions. CAMs were examined daily until day 12 and photographed in ovo with a Leica stereomicroscope. Capillaries emerging from the sponge were counted. The assay was repeated twice.

[6] = test system: HUVECs; experiment: HUVEC chemotaxis assay (Boyden chamber, VEGF-A); assay type: cell-based, human
Description: FIG. 24. […] (SEQ ID NO:123) inhibits HUVEC migration. HUVECs were stimulated with VEGF-A (10 ng/ml). The assay was performed in a Boyden microchemotaxis chamber, and cells were allowed to migrate through an 8-μm pore filter for 5 h at 37° C. […] (SEQ ID NO:124) (control) and […] (SEQ ID NO:123) peptides were tested at 1 mM concentration. Migrated cells were stained and five high-power fields (magnitude 100×) for each microwell were counted. Error bars are the standard error of the means of triplicate microwells.
A cell migration assay was performed in a 48-well microchemotaxis chamber (NeuroProbe, Gaithersburg, Md.) according to Bussolini et al. (1995). Polyvinylpyrrolidone-free polycarbonate filters (Nucleopore, Cambridge, Mass.) with 8-μm pores were coated with 1% gelatin for 10 min at room temperature and equilibrated in M199 medium supplemented with 2% FCS. […] (SEQ ID NO:123) or control […] (SEQ ID NO:124) peptide (1 mM) was placed in the lower compartment of a Boyden chamber in M199 medium supplemented with 2% FCS and 10 ng/ml VEGF-A (R&D System). Subconfluent cultures that had been starved overnight were harvested in PBS containing 2.5 mM EDTA, washed once in PBS, and resuspended in M199 medium containing 2% FCS at a final concentration of 2×10^6 cells/ml. After the filter was placed between the lower and upper chambers, 50 μl of the cell suspension was seeded in the upper compartment, and cells were allowed to migrate for 5 h at 37° C. in a humidified atmosphere with 5% CO2. The filter was then removed, and cells on the upper side were scraped with a rubber policeman. Migrated cells were fixed in methanol and stained with Giemsa solution (Diff-Quick, Baxter Diagnostics, Rome, Italy). Five random high-power fields (magnitude 100×) were counted in each well. Each assay was run in triplicate.

[7] = biological target: T3, β3 integrin cytoplasmic domain (Homo sapiens, UniProt P05106); experiment: Binding of Fyn-phosphorylated phage to β3 cytoplasmic domain; conditions: phage phosphorylated by Fyn versus unphosphorylated phage
T3 construct: recombinant fusion proteins containing β3 or β5 cytoplasmic domains
T3 sequence (P05106 742-788 limits assumed): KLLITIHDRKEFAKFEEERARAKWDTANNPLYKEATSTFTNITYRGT
Description: Phosphorylation of peptide libraries with src family protein kinases (Fyn, c-Src, Lyn, and Syc) and serine/threonine kinases such as a MAP kinase were performed as described previously (Schmitz et al., 1996; Dente et al., 1997; Gram et al., 1997). Briefly, phage particles were collected from culture supernatants by double precipitation with 20% polyethylene glycol 8000 in 2.5 M NaCl. Particles were dissolved at 10^12 particles/ml. Purified phage (10 μl) were incubated for 3 hours at room temperature with different concentrations (35 to 3,500 units) of protein kinases in a reaction buffer volume of 50 μl. The reaction mixtures were transferred to tubes containing 10 μg of agarose-conjugated anti-P-Tyr, anti-P-Ser, or anti-P-Thr monoclonal antibodies to select phage displaying phosphorylated peptides. […] Phosphorylated peptides binding to β3 and β5 cytoplasmic domains were analyzed as described in the previous section.
Randomly selected clones from rounds III and IV were sequenced from a X4YX4 phosphorylated library with Fyn. […] The ratio of binding to β3 or β5 was calculated by dividing the number of β3 or β5 colonies by GST or BSA colonies found after panning. The ratio of binding to β3 or β5 with phosphorylated phage by Fyn versus unphosphorylated phage was calculated by dividing the number of colonies found after the panning. […]

[8] = lower concentrations, not shown

T2 sequence (Q07075 whole entry): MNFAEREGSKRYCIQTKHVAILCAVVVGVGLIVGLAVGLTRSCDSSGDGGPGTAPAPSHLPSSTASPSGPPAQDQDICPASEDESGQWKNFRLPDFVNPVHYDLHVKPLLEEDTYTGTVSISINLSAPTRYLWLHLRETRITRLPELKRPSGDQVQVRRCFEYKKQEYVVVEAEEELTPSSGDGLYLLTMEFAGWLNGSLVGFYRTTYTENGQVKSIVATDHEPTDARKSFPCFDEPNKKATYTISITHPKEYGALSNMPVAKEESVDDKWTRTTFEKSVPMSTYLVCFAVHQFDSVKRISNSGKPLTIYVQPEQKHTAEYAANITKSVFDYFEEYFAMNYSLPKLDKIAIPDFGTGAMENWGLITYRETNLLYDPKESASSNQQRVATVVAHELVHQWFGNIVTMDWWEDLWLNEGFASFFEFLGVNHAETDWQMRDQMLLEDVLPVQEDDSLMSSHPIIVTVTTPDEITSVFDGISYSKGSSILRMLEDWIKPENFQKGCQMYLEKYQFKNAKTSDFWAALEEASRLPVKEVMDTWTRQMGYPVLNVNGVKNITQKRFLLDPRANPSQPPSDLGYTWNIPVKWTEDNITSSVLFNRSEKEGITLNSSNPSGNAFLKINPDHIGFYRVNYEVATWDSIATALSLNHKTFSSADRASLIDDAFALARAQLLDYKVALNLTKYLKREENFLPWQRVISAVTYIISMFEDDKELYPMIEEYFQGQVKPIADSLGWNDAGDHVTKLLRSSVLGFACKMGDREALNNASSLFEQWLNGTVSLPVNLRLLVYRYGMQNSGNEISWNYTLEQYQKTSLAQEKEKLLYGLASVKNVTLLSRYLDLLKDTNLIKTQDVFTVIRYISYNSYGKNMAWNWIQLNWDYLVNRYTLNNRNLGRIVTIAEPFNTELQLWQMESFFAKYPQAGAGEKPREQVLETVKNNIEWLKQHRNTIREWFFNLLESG
T1 sequence (Q07075 whole entry): as above

| Molecule | competition with CPKVCPRECESNC phage for binding to SK-RC-49/APA cells [1] | reduction of APA enzyme activity [2] [%] | inhibition of HUVEC proliferation ([3]; 1 mM, VEGF-A 10 ng/ml, FIG. 25) [%] | effect on cell proliferation [3, 8] | HUVEC morphogenesis / capillary-like network ([4]; 1 mM, 24 h) | formation of capillary-like network ([4]; increasing concentrations) | inhibition of VEGF-A-induced neovascularization (number of capillaries emerging from the sponge) ([5]; 1 mM, VEGF-A 20 ng, day 12) [%] | effect on the number of growing vessels ([5]; lower peptide concentrations, not shown) | inhibition of chemotaxis of HUVECs ([6]; 1 mM, VEGF-A 10 ng/ml, 5 h, FIG. 24) [%] | effect on cell migration [6, 8] | Phos/Unphos [7] |
| --- | --- | --- | --- | --- | --- | --- | --- | --- | --- | --- | --- |
| CC[C@H](C)[C@H](NC(=O)[C@H](CO)NC(=O)[C@H](CCC(=O)O)NC(=O)[C@H](CS)NC(=O)[C@H](CCC(=O)O)NC(=O)[C@H](CCCNC(=N)N)NC(=O)[C@@H]1CCCN1C(=O)[C@@H](N)CS)C(=O)N[C@@H](CS)C(=O)O (H-CPRECESIC-OH) | competed | 60 | 50 | no significant effect | vessel-like branching structures were significantly fewer and shorter | progressive impairment of the formation of this network | 40 | no effect | 70 | no significant effect |  |
| MLLGYRFEK |  |  |  |  |  |  |  |  |  |  | 2.5 |
